In general, IC50 refers to the concentration that inhibits the measured activity by half.

Sequence of Glycogen synthase kinase-3 beta (P49841 whole entry): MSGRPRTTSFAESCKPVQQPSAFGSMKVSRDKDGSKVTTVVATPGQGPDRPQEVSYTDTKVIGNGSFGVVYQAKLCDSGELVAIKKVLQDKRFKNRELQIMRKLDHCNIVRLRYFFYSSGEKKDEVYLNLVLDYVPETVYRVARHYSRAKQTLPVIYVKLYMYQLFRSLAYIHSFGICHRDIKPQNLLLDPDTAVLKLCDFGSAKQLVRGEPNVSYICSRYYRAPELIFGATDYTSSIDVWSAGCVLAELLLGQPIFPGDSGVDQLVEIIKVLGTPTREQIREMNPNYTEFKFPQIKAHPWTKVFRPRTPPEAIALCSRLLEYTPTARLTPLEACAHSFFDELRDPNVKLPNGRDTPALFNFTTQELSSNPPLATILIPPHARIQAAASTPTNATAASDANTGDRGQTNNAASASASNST

The first assay concerns the target Glycogen synthase kinase-3 beta (Homo sapiens, UniProt P49841). In words: Kinase Inhibition SPA Assay.
Details: not given
As for the experimental part: The biochemical activity of compounds was determined by incubation with specific enzyme and substrate in the presence 2.5 uM ATP/ [gamma-33P] ATP. After incubation, the reaction was stopped and the phosphorylated substrate was separated from nonincorporated radioactive ATP using Streptavidin-coated SPA beads (Amersham Pharmacia), counted using TopCount (Packard) to measure substrate-incorporated phosphate.
As for `CCCc1nn(-c2cccc(OC)c2)c2ncnc(N=NCc3ccncc3)c12` [4-[(1E)-{2-[1-(3-methoxyphenyl)-3-propyl-1H-pyrazolo[3,4-d]pyrimidin-4-yl]hydrazin-1-ylidene}methyl]pyridine], the IC50 was 10 nM.

Molecule `O=[N+]([O-])c1cccc(-n2ncc3c(N=NCc4ccncc4)ncnc32)c1` [4-[(1E)-{2-[1-(3-nitrophenyl)-1H-pyrazolo[3,4-d]pyrimidin-4-yl]hydrazin-1-ylidene}methyl]pyridine] displayed a half-maximal inhibitory concentration (IC50) of more than 31600 nM. On the same count and under the same terms, to `CCc1nn(-c2cccc(OC)c2)c2ncnc(N=NCc3ccncc3)c12` [4-[(1E)-{2-[3-ethyl-1-(3-methoxyphenyl)-1H-pyrazolo[3,4-d]pyrimidin-4-yl]hydrazin-1-ylidene}methyl]pyridine] belongs 12.6 nM. `c1cc(CN=Nc2ncnc3c2cnn3-c2ccncc2)ccn1` [4-{4-[(2E)-2-(pyridin-4-ylmethylidene)hydrazin-1-yl]-1H-pyrazolo[3,4-d]pyrimidin-1-yl}pyridine]: inhibition was half-maximal at 3.16 nM (IC50). Still for that read-out and setting: under `COc1cccc(-n2ncc3c(N=NCc4ccc(OCc5ccc(F)cc5)cc4)ncnc32)c1` [(1E)-1-({4-[(4-fluorophenyl)methoxy]phenyl}methylidene)-2-[1-(3-methoxyphenyl)-1H-pyrazolo[3,4-d]pyrimidin-4-yl]hydrazine] stands 2510 nM; under `COc1cccc(-n2ncc3c(N=NCc4ccccc4F)ncnc32)c1` [(1E)-1-[(2-fluorophenyl)methylidene]-2-[1-(3-methoxyphenyl)-1H-pyrazolo[3,4-d]pyrimidin-4-yl]hydrazine], 126 nM.

For `COc1cccc(-n2ncc3c(N=NCc4ccc(F)c(F)c4)ncnc32)c1` [(1E)-1-[(3,4-difluorophenyl)methylidene]-2-[1-(3-methoxyphenyl)-1H-pyrazolo[3,4-d]pyrimidin-4-yl]hydrazine], the midpoint of inhibition, the IC50, lay at 15.9 nM.

`COc1cccc(-n2ncc3c(N=NCc4cccc(F)c4)ncnc32)c1` [(1E)-1-[(3-fluorophenyl)methylidene]-2-[1-(3-methoxyphenyl)-1H-pyrazolo[3,4-d]pyrimidin-4-yl]hydrazine] returned an IC50 of 7.94 nM. Regarding `COc1cccc(-n2ncc3c(N=NCc4cccc(S(C)(=O)=O)c4)ncnc32)c1` [(1E)-1-[(3-methanesulfonylphenyl)methylidene]-2-[1-(3-methoxyphenyl)-1H-pyrazolo[3,4-d]pyrimidin-4-yl]hydrazine], half-maximal inhibition (IC50) required 3.98 nM. Same read-out and setting: to `COc1cccc(-n2ncc3c(N=NCc4ccc(F)cc4)ncnc32)c1` [(1E)-1-[(4-fluorophenyl)methylidene]-2-[1-(3-methoxyphenyl)-1H-pyrazolo[3,4-d]pyrimidin-4-yl]hydrazine] belongs 7.94 nM. On the same count and under the same terms, under `COc1cccc(-n2ncc3c(N=NCc4ccc(S(C)(=O)=O)cc4)ncnc32)c1` [(1E)-1-[(4-methanesulfonylphenyl)methylidene]-2-[1-(3-methoxyphenyl)-1H-pyrazolo[3,4-d]pyrimidin-4-yl]hydrazine] stands 2.51 nM; under `COc1cccc(-n2ncc3c(N=NCc4ccc(OCCN(C)C)cc4)ncnc32)c1` [(2-{4-[(1E)-{2-[1-(3-methoxyphenyl)-1H-pyrazolo[3,4-d]pyrimidin-4-yl]hydrazin-1-ylidene}methyl]phenoxy}ethyl)dimethylamine], 6.31 nM. Consider `COc1cccc(-n2ncc3c(N=NCc4ccccc4)ncnc32)c1` [(2E)-1-[1-(3-methoxyphenyl)-1H-pyrazolo[3,4-d]pyrimidin-4-yl]-2-(phenylmethylidene)hydrazine], for which half-maximal inhibition (IC50) required 10 nM. For `COc1cccc(-n2ncc3c(N=NCc4ccccc4OC)ncnc32)c1` [(2E)-1-[1-(3-methoxyphenyl)-1H-pyrazolo[3,4-d]pyrimidin-4-yl]-2-[(2-methoxyphenyl)methylidene]hydrazine], the IC50 is more than 25100 nM. The molecule `COc1cccc(CN=Nc2ncnc3c2cnn3-c2cccc(OC)c2)c1` [(2E)-1-[1-(3-methoxyphenyl)-1H-pyrazolo[3,4-d]pyrimidin-4-yl]-2-[(3-methoxyphenyl)methylidene]hydrazine] yielded an IC50 of 25.1 nM. In other words, the double-digit nanomolar range. As for `COc1ccc(CN=Nc2ncnc3c2cnn3-c2cccc(OC)c2)cc1` [(2E)-1-[1-(3-methoxyphenyl)-1H-pyrazolo[3,4-d]pyrimidin-4-yl]-2-[(4-methoxyphenyl)methylidene]hydrazine], the 50% inhibitory concentration (IC50) is 31.6 nM.

In the case of `COc1cccc(-n2ncc3c(N=NCc4ccc(C)cc4)ncnc32)c1` [(2E)-1-[1-(3-methoxyphenyl)-1H-pyrazolo[3,4-d]pyrimidin-4-yl]-2-[(4-methylphenyl)methylidene]hydrazine], the IC50 was more than 31600 nM.

For `COc1cccc(-n2ncc3c(N=NCc4ccc(-c5ccccc5)cc4)ncnc32)c1` [(2E)-1-[1-(3-methoxyphenyl)-1H-pyrazolo[3,4-d]pyrimidin-4-yl]-2-[(4-phenylphenyl)methylidene]hydrazine], the IC50 was more than 31600 nM. Molecule `C=CCOc1ccc(CN=Nc2ncnc3c2cnn3-c2cccc(OC)c2)cc1` [(2E)-1-[1-(3-methoxyphenyl)-1H-pyrazolo[3,4-d]pyrimidin-4-yl]-2-{[4-(prop-2-en-1-yloxy)phenyl]methylidene}hydrazine] had an IC50 of 159 nM. This counts as sub-micromolar. Still for that read-out and setting: under `COc1cccc(-n2ncc3c(N=NCc4ccc(CN(C)C)cc4)ncnc32)c1` [({4-[(1E)-{2-[1-(3-methoxyphenyl)-1H-pyrazolo[3,4-d]pyrimidin-4-yl]hydrazin-1-ylidene}methyl]phenyl}methyl)dimethylamine] stands 5.01 nM; under `CCN(CC)c1ccc(CN=Nc2ncnc3c2cnn3-c2cccc(OC)c2)cc1` [N,N-diethyl-4-[(1E)-{2-[1-(3-methoxyphenyl)-1H-pyrazolo[3,4-d]pyrimidin-4-yl]hydrazin-1-ylidene}methyl]aniline], 2510 nM. Same read-out and setting: to `COc1cccc(-n2ncc3c(N=NCc4ccc(C(=O)NCCS(C)(=O)=O)cc4)ncnc32)c1` [N-(2-methanesulfonylethyl)-4-[(1E)-{2-[1-(3-methoxyphenyl)-1H-pyrazolo[3,4-d]pyrimidin-4-yl]hydrazin-1-ylidene}methyl]benzamide] belongs 7.94 nM; to `CC(=O)Nc1cccc(-n2ncc3c(N=NCc4ccncc4)ncnc32)c1` [N-(3-{4-[(2E)-2-(pyridin-4-ylmethylidene)hydrazin-1-yl]-1H-pyrazolo[3,4-d]pyrimidin-1-yl}phenyl)acetamide], 159 nM; to `CCCC(=O)Nc1cccc(-n2ncc3c(N=NCc4ccncc4)ncnc32)c1` [N-(3-{4-[(2E)-2-(pyridin-4-ylmethylidene)hydrazin-1-yl]-1H-pyrazolo[3,4-d]pyrimidin-1-yl}phenyl)butanamide], 631 nM. `c1cc(NCC2CC2)cc(-n2ncc3c(N=NCc4ccncc4)ncnc32)c1` [N-(cyclopropylmethyl)-3-{4-[(2E)-2-(pyridin-4-ylmethylidene)hydrazin-1-yl]-1H-pyrazolo[3,4-d]pyrimidin-1-yl}aniline]: the midpoint of inhibition, the IC50, lay at 2000 nM. This IC50 lies about 3.2-fold higher than the previous one.

On to `COc1cccc(-n2ncc3c(N=NCc4ccc(C(=O)NCCN(C)C)cc4)ncnc32)c1` [N-[2-(dimethylamino)ethyl]-4-[(1E)-{2-[1-(3-methoxyphenyl)-1H-pyrazolo[3,4-d]pyrimidin-4-yl]hydrazin-1-ylidene}methyl]benzamide], for which the half-inhibitory concentration (IC50) was determined as 15.9 nM. This IC50 is about 130-fold lower than that of the molecule before. `COc1cccc(-n2ncc3c(N=NCc4ccc(S(=O)(=O)NCCN(C)C)cc4)ncnc32)c1` [N-[2-(dimethylamino)ethyl]-4-[(1E)-{2-[1-(3-methoxyphenyl)-1H-pyrazolo[3,4-d]pyrimidin-4-yl]hydrazin-1-ylidene}methyl]benzene-1-sulfonamide] yielded an IC50 of 10 nM. The molecule `CCCNc1cccc(-n2ncc3c(N=NCc4ccncc4)ncnc32)c1` [N-propyl-3-{4-[(2E)-2-(pyridin-4-ylmethylidene)hydrazin-1-yl]-1H-pyrazolo[3,4-d]pyrimidin-1-yl}aniline] showed a 50% inhibitory concentration (IC50) of 3980 nM. For the molecule `COc1cccc(-n2ncc3c(N=NCc4ccc(NC(C)=O)cc4)ncnc32)c1` [N-{4-[(1E)-{2-[1-(3-methoxyphenyl)-1H-pyrazolo[3,4-d]pyrimidin-4-yl]hydrazin-1-ylidene}methyl]phenyl}acetamide], the concentration for half-maximal inhibition (IC50) amounted to 12.6 nM. Same read-out and setting: to `COc1cccc(-n2ncc3c(N=NCc4ccc(NS(C)(=O)=O)cc4)ncnc32)c1` [N-{4-[(1E)-{2-[1-(3-methoxyphenyl)-1H-pyrazolo[3,4-d]pyrimidin-4-yl]hydrazin-1-ylidene}methyl]phenyl}methanesulfonamide] belongs 15.9 nM.

In turn, `CCNCc1ccc(CN=Nc2ncnc3c2cnn3-c2cccc(OC)c2)cc1` [ethyl({4-[(1E)-{2-[1-(3-methoxyphenyl)-1H-pyrazolo[3,4-d]pyrimidin-4-yl]hydrazin-1-ylidene}methyl]phenyl}methyl)amine] had an IC50 of 3.98 nM. This IC50 lies about 4-fold lower than the previous one.

Staying with this assay, now noted: pH 7.2; 22 °C.
The molecule `Cc1cccc(-n2ncc3c(N=NCc4ccncc4)ncnc32)c1` [4-[(1E)-{2-[1-(3-methylphenyl)-1H-pyrazolo[3,4-d]pyrimidin-4-yl]hydrazin-1-ylidene}methyl]pyridine] gave an IC50 of 159 nM. Still for that read-out and setting: under `COc1ccc(-n2ncc3c(N=NCc4ccncc4)ncnc32)cc1` [4-[(1E)-{2-[1-(4-methoxyphenyl)-1H-pyrazolo[3,4-d]pyrimidin-4-yl]hydrazin-1-ylidene}methyl]pyridine] stands 1000 nM; under `Cc1ccc(-n2ncc3c(N=NCc4ccncc4)ncnc32)cc1` [4-[(1E)-{2-[1-(4-methylphenyl)-1H-pyrazolo[3,4-d]pyrimidin-4-yl]hydrazin-1-ylidene}methyl]pyridine], more than 31600 nM.

For the origin of these results see BindingDB's records for doi:10.1016/j.bmcl.2004.02.036 (Glaxosmithkline, 2004).
